Measured values taken from patent publication US5750499A, “Receptor-selective somatostatin analogs” (The Salk Institute for Biological Studies, priority 1995, dated 1998).
“Also recorded” adds a separate entry of the source. Where a SMILES comes first, the peptide text is derived from it. Bridges are numbered along the chain shown (N, C = ends). Where no end group is shown, it is not given here. [ ]: non-standard residue; d: D form. The star is where a group is joined. Phe(4-CH2NHiPr) = CC(C)NCc1ccc(C[C@H](N)C(=O)O)cc1; Tyr(3-I) = N[C@@H](Cc1ccc(O)c(I)c1)C(=O)O; 125I = [125I]*

Key:
[1] = molecular target: T1, SSTR1 (Homo sapiens, UniProt P30872); experiment: Inhibition of [125I-Tyr11]SRIF binding to cloned human SSTR1
T1 construct: expressed in transfected cells; host or cells: COS and CHO cells
Procedure: In a typical assay, an amount of protein from the cell homogenate is placed into a small volume of an appropriate assay buffer at an appropriate pH.
(§1) Alternatively, IC50 values indicative of the concentration of a competitive ligand necessary to displace a saturation concentration of a target ligand being measured from 50% of binding sites can also be calculated in such competitive assays.
(§2) In vitro Bioassay: The effects of the various somatostatin analogs are tested in vitro for their ability to bind to isolated cloned receptors expressed on COS and CHO cells.
(§3) The molecular cloning of the genes encoding multiple somatostatin receptor subtypes permits the individual expression of these receptors in mammalian cells and the characterization of their respective pharmacological profiles.

[2] = molecular target: T2, mSSTR1 (Mus musculus, UniProt P30873); experiment: Inhibition of [125I-Tyr11]SRIF binding to cloned mSSTR1 (Table)
T2 construct: expressed in transfected cells; host or cells: COS and CHO cells
Procedure: as §2, §3
(§4) Certain of the measurements are in progress.

[3] = molecular target: T3, mSSTR2 (Mus musculus, UniProt P30875); experiment: Inhibition of [125I-Tyr11]SRIF binding to cloned mSSTR2 (Table)
T3 construct: expressed in transfected cells; host or cells: COS and CHO cells
Procedure: as §2, §3, §4

[4] = molecular target: T4, mSSTR3 (Mus musculus, UniProt P30935); experiment: Inhibition of [125I-Tyr11]SRIF binding to cloned mSSTR3 (Table)
T4 construct: expressed in transfected cells; host or cells: COS and CHO cells
Procedure: as §2, §3, §4

[5] = molecular target: T5, SSTR1 expressed in COS-7 cells (Homo sapiens, UniProt P30872); experiment: GTPgS and pertussis toxin regulation of radioligand binding to SSTR1 expressed in COS-7 cells
T5 construct: expressed in transfected cells; host or cells: COS-7 cells
From the text: (§5) The Bmax value represents the highest number of specific sites which can be occupied at a given time, i.e. the saturation point.

[6] = tested on: COS-7 cells expressing SSTR1; experiment: Forskolin-stimulated cAMP formation in COS-7 cells expressing SSTR1; assay type: cell-based; details: 1 μM of Peptide No. 2
[7] = molecular target: T1, SSTR1; experiment: Direct saturation binding of iodinated Peptide No. 5 to cloned SSTR1; details: iodinated peptide as radioligand
From the text: as §1, §5

[8] = molecular target: T6, SSTR2 (Mus musculus, UniProt P30875); experiment: Direct binding of iodinated Peptide No. 5 to cloned SSTR2
T6 construct: expressed in transfected cells; host or cells: COS and CHO cells
From the text: as §5

[9] = molecular target: T7, SSTR3 (Mus musculus, UniProt P30935); experiment: Direct binding of iodinated Peptide No. 5 to cloned SSTR3
T7 construct: expressed in transfected cells; host or cells: COS and CHO cells
From the text: as §5

[10] = molecular target: T8, SSTR4 (Homo sapiens, UniProt P31391); experiment: Direct binding of iodinated Peptide No. 5 to cloned SSTR4
T8 construct: expressed in transfected cells; host or cells: COS and CHO cells
From the text: as §5

[11] = molecular target: T9, SSTR5 (Rattus norvegicus, UniProt P30938); experiment: Direct binding of iodinated Peptide No. 5 to cloned SSTR5
T9 construct: expressed in transfected cells; host or cells: COS and CHO cells
T9 sequence (P30938 1-363): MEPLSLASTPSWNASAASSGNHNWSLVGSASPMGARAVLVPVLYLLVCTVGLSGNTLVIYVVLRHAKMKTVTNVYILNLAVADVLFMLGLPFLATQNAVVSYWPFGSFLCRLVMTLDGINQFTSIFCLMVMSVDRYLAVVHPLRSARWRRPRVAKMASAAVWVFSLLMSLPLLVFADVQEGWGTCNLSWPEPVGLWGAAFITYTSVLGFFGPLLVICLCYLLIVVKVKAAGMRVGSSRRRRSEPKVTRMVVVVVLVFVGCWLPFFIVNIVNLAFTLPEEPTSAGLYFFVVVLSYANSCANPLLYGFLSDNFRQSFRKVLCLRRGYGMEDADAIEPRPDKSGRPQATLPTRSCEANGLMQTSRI
From the text: as §5

[12] = molecular target: T1, SSTR1; experiment: Inhibition of binding of iodinated Peptide No. 5 to SSTR1; details: radioligand iodinated Peptide No. 5
From the text: as §1, §5

T2 sequence (P30873 whole entry): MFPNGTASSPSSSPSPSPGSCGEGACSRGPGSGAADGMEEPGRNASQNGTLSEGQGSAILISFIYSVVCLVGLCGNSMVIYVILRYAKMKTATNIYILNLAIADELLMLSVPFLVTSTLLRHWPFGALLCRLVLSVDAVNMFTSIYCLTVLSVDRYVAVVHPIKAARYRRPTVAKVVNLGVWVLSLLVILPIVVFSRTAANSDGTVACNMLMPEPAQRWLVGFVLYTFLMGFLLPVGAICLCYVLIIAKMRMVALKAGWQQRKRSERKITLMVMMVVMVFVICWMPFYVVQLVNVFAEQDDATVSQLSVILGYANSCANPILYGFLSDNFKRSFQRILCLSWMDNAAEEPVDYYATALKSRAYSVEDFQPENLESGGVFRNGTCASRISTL
T4 sequence (P30935 whole entry): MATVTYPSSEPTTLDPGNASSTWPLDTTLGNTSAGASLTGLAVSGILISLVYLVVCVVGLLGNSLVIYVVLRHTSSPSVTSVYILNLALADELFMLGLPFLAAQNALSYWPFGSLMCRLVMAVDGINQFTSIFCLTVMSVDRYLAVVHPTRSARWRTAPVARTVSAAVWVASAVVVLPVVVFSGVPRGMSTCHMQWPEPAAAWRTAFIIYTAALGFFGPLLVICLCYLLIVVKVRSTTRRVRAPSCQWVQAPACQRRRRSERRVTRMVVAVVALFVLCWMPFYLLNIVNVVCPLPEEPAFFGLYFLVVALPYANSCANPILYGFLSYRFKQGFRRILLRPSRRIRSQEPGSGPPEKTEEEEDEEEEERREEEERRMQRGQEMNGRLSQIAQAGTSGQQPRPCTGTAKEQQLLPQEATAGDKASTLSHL
T3 sequence (P30875 whole entry): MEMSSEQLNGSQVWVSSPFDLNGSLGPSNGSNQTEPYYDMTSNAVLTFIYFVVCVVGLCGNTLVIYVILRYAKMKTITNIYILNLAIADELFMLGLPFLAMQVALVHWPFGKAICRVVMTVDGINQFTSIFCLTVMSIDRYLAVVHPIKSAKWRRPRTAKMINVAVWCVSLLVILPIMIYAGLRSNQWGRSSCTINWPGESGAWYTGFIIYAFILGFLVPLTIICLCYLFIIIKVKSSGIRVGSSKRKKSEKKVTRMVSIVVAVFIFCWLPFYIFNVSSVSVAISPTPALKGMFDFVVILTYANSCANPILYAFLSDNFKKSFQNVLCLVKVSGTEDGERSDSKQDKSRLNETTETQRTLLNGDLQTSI
T1 sequence (P30872 whole entry): as the sequence (P30873 whole entry) above, with A25G, C26G, S32A, A385T, S389T counted along it
T5 sequence (P30872 whole entry): as the sequence (P30873 whole entry) above, with A25G, C26G, S32A, A385T, S389T counted along it
T7 sequence (P30935 whole entry): as the sequence (P30935 whole entry) above
T6 sequence (P30875 whole entry): as the sequence (P30875 whole entry) above
T8 sequence (P31391 whole entry): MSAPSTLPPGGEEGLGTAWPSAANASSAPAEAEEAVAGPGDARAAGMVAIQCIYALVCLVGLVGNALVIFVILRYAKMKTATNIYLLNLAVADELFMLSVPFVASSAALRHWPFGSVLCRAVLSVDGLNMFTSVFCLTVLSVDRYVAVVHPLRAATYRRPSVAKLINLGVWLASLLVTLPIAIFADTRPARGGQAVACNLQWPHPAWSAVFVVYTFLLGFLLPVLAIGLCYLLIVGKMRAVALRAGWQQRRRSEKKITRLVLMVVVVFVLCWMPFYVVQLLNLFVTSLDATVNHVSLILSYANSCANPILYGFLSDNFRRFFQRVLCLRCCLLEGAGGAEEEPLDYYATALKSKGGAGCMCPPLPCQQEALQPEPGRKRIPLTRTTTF

Molecule CC(C)NCc1ccc(C[C@@H]2NC(=O)[C@@H](Cc3c[nH]c4ccccc34)NC(=O)[C@H](Cc3ccccc3)NC(=O)[C@H](Cc3ccccc3)NC(=O)[C@H](CCCCN)NC(=O)[C@@H](N)CSSC[C@@H](C(=O)O)NC(=O)[C@H](CO)NC(=O)[C@H]([C@@H](C)O)NC(=O)[C@H](Cc3ccccc3)NC(=O)[C@H]([C@@H](C)O)NC2=O)cc1 [Peptide No. 2, des-AA^1,2,5 [D-Trp^8, IAmp^9]-SRIF] (H-CKFF[dW][Phe(4-CH2NHiPr)]TFTSC-OH; disulfide 1-11) has an IC50 [1] of 1.8 ± 0.7 nM, an IC50 [2] of 1 nM and an IC50 [3] of 1100 nM. The IC50 [4] was 1000 nM.
With “[^125 I-Tyr^11 ]SRIF (AGCKNFFWKTY(125I)TSC; ends and bridges not checked; UniProt P61278 103-116, looked up, variant F11Y)” the “effect of GTPgS and pertussis toxin treatment on binding of the radioligand to SSTR1” value [5] was “did not diminish; also recorded: not significantly effected by GTP analogs nor pertussis toxin treatment”.
Work on CC(C)NCc1ccc(C[C@@H]2NC(=O)[C@@H](Cc3c[nH]c4ccccc34)NC(=O)[C@H](Cc3ccccc3)NC(=O)[C@H](Cc3ccccc3)NC(=O)[C@H](CCCCN)NC(=O)[C@@H](NC(=O)[C@@H](N)Cc3ccc(O)cc3)CSSC[C@@H](C(=O)O)NC(=O)[C@H](CO)NC(=O)[C@H]([C@@H](C)O)NC(=O)[C@H](Cc3ccccc3)NC(=O)[C@H]([C@@H](C)O)NC2=O)cc1 [Peptide No. 5] (H-YCKFF[dW][Phe(4-CH2NHiPr)]TFTSC-OH; disulfide 2-12) yielded an IC50 [2] of 0.8 nM, an IC50 [3] greater than 100 nM and an IC50 [4] greater than 100 nM.
C[C@H](N)C(=O)NCC(=O)N[C@H]1CSSC[C@@H](C(=O)O)NC(=O)[C@H](CO)NC(=O)[C@H]([C@@H](C)O)NC(=O)[C@H](Cc2ccccc2)NC(=O)[C@H]([C@@H](C)O)NC(=O)[C@H](CCCCN)NC(=O)[C@H](Cc2c[nH]c3ccccc23)NC(=O)[C@H](Cc2ccccc2)NC(=O)[C@H](Cc2ccccc2)NC(=O)[C@H](CC(N)=O)NC(=O)[C@H](CCCCN)NC1=O [SRIF, somatostatin-14] was tested, and the “inhibition of forskolin-stimulated cAMP formation” value [6] was “Neither 1 μM of Peptide No. 2, nor SRIF itself, inhibits forskolin-stimulated cAMP formation”.
CC(C)NCc1ccc(C[C@@H]2NC(=O)[C@@H](Cc3c[nH]c4ccccc34)NC(=O)[C@H](Cc3ccccc3)NC(=O)[C@H](Cc3ccccc3)NC(=O)[C@H](CC(N)=O)NC(=O)[C@H](CCCCN)NC(=O)[C@@H](N)CSSC[C@@H](C(=O)O)NC(=O)[C@H](CO)NC(=O)[C@H]([C@@H](C)O)NC(=O)[C@H](Cc3ccccc3)NC(=O)[C@H]([C@@H](C)O)NC2=O)cc1 [Peptide No. 9] (H-CKNFF[dW][Phe(4-CH2NHiPr)]TFTSC-OH; disulfide 1-12) gave an IC50 [2] of 54 nM, an IC50 [3] greater than 1000 nM and an IC50 [4] greater than 1000 nM.
With CC(C)NCc1ccc(C[C@@H]2NC(=O)[C@@H](Cc3c[nH]c4ccccc34)NC(=O)[C@H](Cc3ccccc3)NC(=O)[C@H](Cc3ccccc3)NC(=O)[C@H](CCCCN)NC(=O)[C@@H](NC(=O)[C@@H](N)Cc3ccc(O)c(I)c3)CSSC[C@@H](C(=O)O)NC(=O)[C@H](CO)NC(=O)[C@H]([C@@H](C)O)NC(=O)[C@H](Cc3ccccc3)NC(=O)[C@H]([C@@H](C)O)NC2=O)cc1 [^125 I-Tyr^2-des-AA^1,5-[D-Trp^8,IAmp^9]SRIF] (H-[Tyr(3-I)]CKFF[dW][Phe(4-CH2NHiPr)]TFTSC-OH; disulfide 2-12) the “Bmax, binding to SSTR1” value [7] was 226±56 fmol/mg protein, the “specific binding of iodinated peptide to SSTR2” value [8] was “did not bind” and the “specific binding of iodinated peptide to SSTR3” value [9] was “did not bind”. The “specific binding of iodinated peptide to SSTR4” value [10] was “did not bind”, the “specific binding of iodinated peptide to SSTR5” value [11] was “did not bind” and the “effect of GTPgS and pertussis toxin treatment on binding of the radioligand to SSTR1” value [5] was “reduced by GTPgS and pertussis toxin treatment”.
With CC(C)NCc1ccc(C[C@@H]2NC(=O)[C@@H](Cc3c[nH]c4ccccc34)NC(=O)[C@H](Cc3ccccc3)NC(=O)[C@H](Cc3ccccc3)NC(=O)[C@H](CCCCN)NC(=O)[C@@H](N)CSSC[C@@H](C(=O)O)NC(=O)[C@@H](CO)NC(=O)[C@H]([C@@H](C)O)NC(=O)[C@H](Cc3ccccc3)NC(=O)[C@H]([C@@H](C)O)NC2=O)cc1 [Peptide No. 4, des-AA^1,2,5-[D-Trp^8, IAmp^9, D-Ser^13]SRIF] (H-CKFF[dW][Phe(4-CH2NHiPr)]TFT[dS]C-OH; disulfide 1-11) the IC50 [12] was 5.3 ± 0.8 nM, the IC50 [2] was 1.25 nM and the IC50 [3] was greater than 1000 nM. It also gave an IC50 [4] of 178 nM.
Work on CC(C)NCc1ccc(C[C@@H]2NC(=O)[C@@H](Cc3c[nH]c4ccccc34)NC(=O)[C@H](Cc3ccccc3)NC(=O)[C@H](Cc3ccccc3)NC(=O)[C@@H](N)CSSC[C@@H](C(=O)O)NC(=O)[C@H](Cc3ccccc3)NC(=O)[C@H]([C@@H](C)O)NC2=O)cc1 [[IAmp^9]ODT8, [IAmp^5]-ODT8] (H-CFF[dW][Phe(4-CH2NHiPr)]TFC-OH; disulfide 1-8) yielded an IC50 [2] of 160 nM, an IC50 [3] greater than 1000 nM and an IC50 [4] of 500 nM.
